Data: patent publication US9255090B2, “Heterocyclyl derivatives and their use as prostaglandin D2 receptor modulators” (Actelion Pharmaceuticals Ltd., priority 2012, dated 2016)

Biological target: hCRTH2 receptor (Homo sapiens (Human), UniProt Q9Y5Y4)
Assay: hCRTH2 receptor membranes radioligand (3H-PGD2) displacement assay
Assay type: binding
Conditions: 3H-PGD2 radioligand displacement, HEK293-hCRTH2 membranes
Procedure, shortened: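 Compound was first mixed with buffer, then 3H-PGD2 was added at 2.5 nM, and the reaction was started with hCRTH2 membranes from HEK293 cells at 20 μg/well. After 90 min at room temperature, mixtures were filtered and washed with ice-cold buffer, and retained radioactivity was counted.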

Chain of hCRTH2 receptor (Q9Y5Y4 whole entry): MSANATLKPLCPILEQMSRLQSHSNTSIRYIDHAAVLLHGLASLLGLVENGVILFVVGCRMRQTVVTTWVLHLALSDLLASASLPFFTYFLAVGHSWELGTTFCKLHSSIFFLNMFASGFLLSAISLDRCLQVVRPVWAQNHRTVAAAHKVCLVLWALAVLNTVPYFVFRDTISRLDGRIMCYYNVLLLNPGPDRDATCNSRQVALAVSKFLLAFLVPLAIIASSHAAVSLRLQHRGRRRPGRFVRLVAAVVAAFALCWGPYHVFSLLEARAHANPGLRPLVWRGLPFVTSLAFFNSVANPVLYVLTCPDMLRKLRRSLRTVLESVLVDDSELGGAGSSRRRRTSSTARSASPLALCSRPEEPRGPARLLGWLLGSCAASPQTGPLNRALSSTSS

For `O=C(O)Cc1ccc(-c2ccc(F)c3c2CN(C(=O)OCc2ccccc2)CC3)c(Cl)c1` [Example 165, 8-(4-Carboxymethyl-2-chloro-phenyl)-5-fluoro-3,4-dihydro-1H-isoquinoline-2-carboxylic acid benzyl ester], the IC50 was 26.3 nM.

`COc1ccc(CC(=O)O)cc1-c1ccc(F)c2c1CN(C(=O)NCCc1ccccc1)CC2` [Example 133, [3-(5-Fluoro-2-phenethylcarbamoyl-1,2,3,4-tetrahydro-isoquinolin-8-yl)-4-methoxy-phenyl]-acetic acid] was tested, and the IC50 was 13 nM.

`CCOc1cc(CC(=O)O)ccc1-c1ccc(F)c2c1CN(C(=O)CC1COCc3ccccc31)CC2` (racemic) [Example 232] gave an IC50 of 0.6 nM.

`COc1ccc2[nH]cc(CCC(=O)N3CCc4c(F)ccc(-c5cc(CC(=O)O)ccc5OC)c4C3)c2c1` [Example 63, (3-{5-Fluoro-2-[3-(5-methoxy-1H-indol-3-yl)-propionyl]-1,2,3,4-tetrahydro-isoquinolin-8-yl}-4-methoxy-phenyl)-acetic acid] showed an IC50 of 29.5 nM.

In the case of `COc1ccc(CC(=O)O)cc1-c1ccc(C)c2c1CN(C(=O)OCc1ccccc1)CC2` [Example 155, 8-(5-Carboxymethyl-2-methoxy-phenyl)-5-methyl-3,4-dihydro-1H-isoquinoline-2-carboxylic acid benzyl ester], the IC50 is reported as 46.8 nM.

`CCOc1ccc(CC(=O)O)cc1-c1ccc(F)c2c1CN(C(=O)O[C@H](C)c1ccccc1)CC2` [Example 364, 8-(5-Carboxymethyl-2-ethoxy-phenyl)-5-fluoro-3,4-dihydro-1H-isoquinoline-2-carboxylic acid (R)-1-phenyl-ethyl ester] gave an IC50 of 6 nM.

`CCOc1cc(CC(=O)O)ccc1-c1ccc(F)c2c1CN(C(=O)CC1CC(C)(C)Oc3ccccc31)CC2` (racemic) [Example 323] showed an IC50 of 1.8 nM.

Work on `COc1ccc(CC(=O)O)cc1-c1ccc(F)c2c1CN(C(=O)[C@H]1C[C@@H]1c1ccccc1)CC2` [Example 81, {3-[5-Fluoro-2-((1S,2S)-2-phenyl-cyclopropanecarbonyl)-1,2,3,4-tetrahydro-isoquinolin-8-yl]-4-methoxy-phenyl}-acetic acid] yielded an IC50 of 33.1 nM.

In the case of `COc1ccc(CC(=O)O)cc1-c1ccc(F)c2c1CN(C(=O)OCCc1scnc1C)CC2` [Example 153, 8-(5-Carboxymethyl-2-methoxy-phenyl)-5-fluoro-3,4-dihydro-1H-isoquinoline-2-carboxylic acid 2-(4-methyl-thiazol-5-yl)-ethyl ester], the IC50 is reported as 40.7 nM.

Compound `CCOc1ccc(CC(=O)O)cc1-c1ccc(F)c2c1CN(C(=O)OCc1ccnn1C)CC2` [Example 367, 8-(5-Carboxymethyl-2-ethoxy-phenyl)-5-fluoro-3,4-dihydro-1H-isoquinoline-2-carboxylic acid 2-methyl-2H-pyrazol-3-ylmethyl ester] has an IC50 of 8.8 nM.

For `CCOc1ccc(CC(=O)O)cc1-c1ccc(F)c2c1CN(C(=O)[C@@H]1C[C@H]1c1ccccc1)CC2` [Example 220, {4-Ethoxy-3-[5-fluoro-2-((1R,2R)-2-phenyl-cyclopropanecarbonyl)-1,2,3,4-tetrahydro-isoquinolin-8-yl]-phenyl}-acetic acid], the IC50 was 13.5 nM.

In the case of `COc1ccc(CC(=O)O)cc1-c1ccc(F)c2c1CN(C(=O)[C@@H]1C[C@H]1c1ccccc1C)CC2` (racemic) [Example 6, (±)-{3-[5-Fluoro-2-(trans-2-o-tolyl-cyclopropanecarbonyl)-1,2,3,4-tetrahydro-isoquinolin-8-yl]-4-methoxy-phenyl}-acetic acid], the IC50 is reported as 4.22 nM.

For `CCOc1ccc(CC(=O)O)cc1-c1ccc(F)c2c1CN(C(=O)NCc1ccccc1OC)CC2` [Example 437, {4-Ethoxy-3-[5-fluoro-2-(2-methoxy-benzylcarbamoyl)-1,2,3,4-tetrahydro-isoquinolin-8-yl]-phenyl}-acetic acid], the IC50 was 10.9 nM.

For `CCOc1cc(CC(=O)O)ccc1-c1ccc(F)c2c1CN(C(=O)CC1(C)CCCc3ccccc31)CC2` (racemic) [Example 326], the IC50 was 2 nM.

`CC(C)Oc1ccc(CC(=O)O)cc1-c1ccc(F)c2c1CN(C(=O)CC(C)(C)c1ccccc1)CC2` [Example 291, {3-[5-Fluoro-2-(3-methyl-3-phenyl-butyryl)-1,2,3,4-tetrahydro-isoquinolin-8-yl]-4-isopropoxy-phenyl}-acetic acid] showed an IC50 of 5.9 nM.

`COc1ccc(CC(=O)O)cc1-c1ccc(F)c2c1CN(C(=O)/C=C/c1sc(C)nc1C)CC2` [Example 87, (3-{2-[(E)-3-(2,4-Dimethyl-thiazol-5-yl)-acryloyl]-5-fluoro-1,2,3,4-tetrahydro-isoquinolin-8-yl}-4-methoxy-phenyl)-acetic acid] showed an IC50 of 93.8 nM.

In the case of `COc1ccc(C(C)C(=O)O)cc1-c1ccc(F)c2c1CN(C(=O)OCc1ccccc1F)CC2` (racemic) [Example 140, (±)-8-[5-(1-Carboxy-ethyl)-2-methoxy-phenyl]-5-fluoro-3,4-dihydro-1H-isoquinoline-2-carboxylic acid 2-fluoro-benzyl ester], the IC50 is reported as 62.6 nM.

Work on `COc1ccc(CC(=O)O)cc1-c1ccc(F)c2c1CN(C(=O)COC(C)(C)C)CC2` [Example 47, {3-[2-(2-tert-Butoxy-acetyl)-5-fluoro-1,2,3,4-tetrahydro-isoquinolin-8-yl]-4-methoxy-phenyl}-acetic acid] yielded an IC50 of 551 nM.

Compound `COc1ccc(CC(=O)O)cc1-c1ccc(F)c2c1CN(C(=O)CC1COc3ccccc31)CC2` (racemic) [Example 270] has an IC50 of 25.3 nM.

Work on `COc1ccc(CC(=O)O)cc1-c1ccc(OC)c2c1CN(C(=O)OCc1ccccc1)CC2` [Example 156, 8-(5-Carboxymethyl-2-methoxy-phenyl)-5-methoxy-3,4-dihydro-1H-isoquinoline-2-carboxylic acid benzyl ester] yielded an IC50 of 251 nM.

For `CCOc1ccc(CC(=O)O)cc1-c1ccc(F)c2c1CN(C(=O)CC1CC(C)(C)Oc3ncccc31)CC2` (racemic) [Example 284], the IC50 was 2.4 nM.

Compound `COc1ccc(CC(=O)O)cc1-c1ccc(F)c2c1CN(C(=O)OCc1cc(C)nn1C)CC2` [Example 149, 8-(5-Carboxymethyl-2-methoxy-phenyl)-5-fluoro-3,4-dihydro-1H-isoquinoline-2-carboxylic acid 2,5-dimethyl-2H-pyrazol-3-ylmethyl ester] has an IC50 of 6.87 nM.

For `COc1ccc(CC(=O)O)cc1-c1ccc(F)c2c1CN(C(=O)[C@@H]1C[C@H]1c1ccccc1Cl)CC2` (racemic) [Example 3, (±)-(3-{2-[trans-2-(2-Chloro-phenyl)-cyclopropanecarbonyl]-5-fluoro-1,2,3,4-tetrahydro-isoquinolin-8-yl}-4-methoxy-phenyl)-acetic acid], the IC50 was 2.11 nM.

In the case of `O=C(O)Cc1ccccc1-c1ccc(F)c2c1CN(C(=O)OCc1ccccc1)CC2` [Example 30, 8-(2-Carboxymethyl-phenyl)-5-fluoro-3,4-dihydro-1H-isoquinoline-2-carboxylic acid benzyl ester], the IC50 is reported as 875 nM.

For `CS(=O)(=O)c1ccc(CC(=O)O)cc1-c1ccc(F)c2c1CN(C(=O)OCc1ccccc1)CC2` [Example 20, 8-(5-Carboxymethyl-2-methanesulfonyl-phenyl)-5-fluoro-3,4-dihydro-1H-isoquinoline-2-carboxylic acid benzyl ester], the IC50 was 16.3 nM.

For `CCOc1cc(CC(=O)O)ccc1-c1ccc(F)c2c1CN(C(=O)OCC1CC1)CC2` [Example 391, 8-(4-Carboxymethyl-2-ethoxy-phenyl)-5-fluoro-3,4-dihydro-1H-isoquinoline-2-carboxylic acid cyclopropylmethyl ester], the IC50 was 1.6 nM.

`COc1ccc(CC(=O)O)cc1-c1ccc(F)c2c1CN(C(=O)CC1(O)CCCCC1)CC2` [Example 128, (3-{5-Fluoro-2-[2-(1-hydroxy-cyclohexyl)-acetyl]-1,2,3,4-tetrahydro-isoquinolin-8-yl}-4-methoxy-phenyl)-acetic acid] gave an IC50 of 538 nM.

`COc1ccc(CC(=O)O)cc1-c1ccc(F)c2c1CN(C(=O)C1OCCc3ccccc31)CC2` (racemic) [Example 273] was tested, and the IC50 was 683 nM.

For `Cc1ccc(-c2cc(OCC(=O)O)ccc2Cl)c2c1CCN(C(=O)OCc1ccccc1)C2` [Example 179, 8-(5-Carboxymethoxy-2-chloro-phenyl)-5-methyl-3,4-dihydro-1H-isoquinoline-2-carboxylic acid benzyl ester], the IC50 was 250 nM.

For `O=C(O)COc1cccc(-c2ccc(F)c3c2CN(C(=O)OCc2ccccc2)CC3)c1` [Example 175, 8-(3-Carboxymethoxy-phenyl)-5-fluoro-3,4-dihydro-1H-isoquinoline-2-carboxylic acid benzyl ester], the IC50 was 117 nM.

`COc1ccc(CC(=O)O)cc1-c1ccc(Cl)c2c1CN(C(=O)[C@@H]1C[C@H]1c1ccccc1F)CC2` [Example 70, (3-{5-Chloro-2-[(1R,2R)-2-(2-fluoro-phenyl)-cyclopropanecarbonyl]-1,2,3,4-tetrahydro-isoquinolin-8-yl}-4-methoxy-phenyl)-acetic acid] was tested, and the IC50 was 1.16 nM.

`COc1ccc(CC(=O)O)cc1-c1ccc(F)c2c1CN(C(=O)C1CCc3ccccc3O1)CC2` (racemic) [Example 115, (±)-{3-[2-(Chroman-2-carbonyl)-5-fluoro-1,2,3,4-tetrahydro-isoquinolin-8-yl]-4-methoxy-phenyl}-acetic acid] showed an IC50 of 173 nM.

In the case of `CCOc1ccc(CC(=O)O)cc1-c1ccc(F)c2c1CN(C(=O)C1CCc3cccc(OC)c3C1)CC2` (racemic) [Example 333], the IC50 is reported as 22.7 nM.

For `COc1ccc(CC(=O)O)cc1-c1c(F)ccc2c1CN(C(=O)[C@@H]1C[C@H]1c1ccccc1)CC2` [Example 35, {3-[7-Fluoro-2-((1R,2R)-2-phenyl-cyclopropanecarbonyl)-1,2,3,4-tetrahydro-isoquinolin-8-yl]-4-methoxy-phenyl}-acetic acid], the IC50 was 3.19 nM.

With `COc1ccc(CC(=O)O)cc1-c1ccc(Cl)c2c1CN(C(=O)CCc1ccccc1)CC2` [Example 76, {3-[5-Chloro-2-(3-phenyl-propionyl)-1,2,3,4-tetrahydro-isoquinolin-8-yl]-4-methoxy-phenyl}-acetic acid] the IC50 was 43.1 nM.
